The subject of one data set is patients. To be noted: cited from earlier work.
Data set [1] has as its system open-chest, anaesthetized cats. Description: MCF-increasing effect in open-chest, anaesthetized cats (strain gauge arch on left ventricle). The format is in vivo, cat. To be noted: for change in vivo at 5 mg/kg: Felis catus, iv, 5 mg/kg i.v., open-chest anaesthetized cats, read-out: Increase in MCF as % of the initial value. Here is the method:
(A) Investigation on anaesthetized cats
The animals were intravenously (i.v.) anaesthetized by 30 mg/kg of pentobarbital-sodium. After arranging the artificial respiration, the chest and pericardium were opened. A strain gauge arch was sutured onto the epicardial surface of the left ventricle [J. Pharm. Exp. Ther. 90, 26 (1947)]. The blood pressure was measured by a catheter inserted to the femoral artery and joined to a P 23 Db pressure transducer and electromanometer. The test compounds were administered either i.v. through a femoral vein cannule, or intraduodenally (i.d.) through the duodenum cannule. At the beginning of the experiment, 0.2 μg/kg of isoproterenol (IS) was i.v. given as an internal standard for checking the myocardial reactivity. Namely, the value of the peak MCF response can also be altered according to the individual animals in the case of each positive inotropic agent. Thus, IS was not used as a real reference drug.
The MCF responses were expressed in the percentage changes of the initial value: the effect on MCF of 5 mg/kg i.v. of the test compound was compared to that of 0.2 μg/kg i.v. of IS.

Data set [2] deals with anaesthetized open-chest dogs. Briefly: Investigation on anaesthetized open-chest dogs (MCF, coronary flow, blood pressure, heart rate). The format is in vivo, dog. Here is the method:
(B) Investigation on anaesthetized dogs
The animals were i.v. anaesthetized by 35 mg/kg of pentobarbital-sodium. After opening the chest and pericardium, the lower ascending part of the left circumflex coronary artery was prepared and fitted with an electromagnetic flow probe for measuring the blood flow in the coronary artery. A strain gauge arch was placed onto the area supplied by this coronary artery for measuring the MCF. For determining the systemic blood pressure a femoral arterial cannule, for i.v. drug administration a femoral venous cannule was used. The dp/dt value was calculated from the pressure measured by a Millar type pressure transducer introduced to the left ventricle. All parameters were registered on a Beckman R 12 8-channel dynograph.

In data set [3] the test system is NADH-dichlorophenol-reductase. Briefly: NADH-dichlorophenol-reductase (NADH oxydase) activity in sarcolemma preparations. The format is biochemical. To be noted: 10^-7 M. Here is the method: (§1) Sarcolemma preparations were made according to D. M. Bers [Biochem. Biophys. Acta 555, 131 (1979)]. NADH-dichlorophenol-reductase was determined by using a Centrifi-CHEM® enzyme-analyzer. The activity of Na-K-ATP-ase was measured in 50 mM Tris-HCl (at pH 7.5). […] The activity of these enzymes was not altered by even a 10^-4 M concentration of compound 22.

For the next data set, the target named is T1, Na-K-ATP-ase (Homo sapiens, UniProt P05023).
T1 construct: Sarcolemma preparations were made according to D. M. Bers; from tissue; host or cells: sarcolemma preparation (heart, from the cited Bers 1979 method and the context)
Description: Na-K-ATP-ase activity in sarcolemma preparations. The format is biochemical. The settings on record: 10^-7 M, 50 mM Tris-HCl pH 7.5. Here is the method:
as §1

Data set [4] deals with ^45 Ca^2+ uptake into the sarcoplasma reticulum. Briefly: 45Ca2+ uptake into the sarcoplasma reticulum in the presence of ATP. To be noted: 10^-2 M. The class given is biochemical. From the text: EFFECT OF COMPOUND 22 ON THE ^45 Ca^2+ UPTAKE INTO THE SARCOPLASMA RETICULUM IN THE PRESENCE OF ATP
The method of S. Harigaya [Circ. Res. 25, 761 (1969)] was used.

The mark [5] stands for this setting: patients suffering from chronic heart failure.

Where a name gives a salt, the structure may show the parent alone. Read-outs that look alike come from different tables or passages of the source.

For the compound “1-(4-hydroxyphenyl)-3-tertiary-butylamino-2-propanol [Prenalterol]”, in the data set with patients (chronic oral treatment), the cardiac performance entry is reported as “not improved”. In addition, in the data set with patients (given intravenously, clinics), the “effect in acute cardiac insufficiency” value is reported as “very effective”.

In the case of `Cc1nc2c(c(N(CCO)Cc3ccccc3)n1)OCC(=O)N2` [Example 11], the change in vivo at 5 mg/kg in data set [1] was determined as 83%.

Turning to `Cc1nc(NCC2CN(Cc3ccccc3)CCO2)c2c(n1)NC(=O)CO2` (stereo not shown) [Example 27, 4-[(4-Benzyl-2-morpholinyl)-methyl]-amino-2-methyl-6,7-dihydro-8H-pyrimido[5,4-b][1,4]oxazin-7-one dihydrochloride dihydrate], in data set [2] (1 mg/kg i.v., dogs), the MCF increase came to 40%, the coronary flow increase came out at 20%, the “decrease in diastolic pressure” value is 20% and the “decrease in the systemic systolic arterial blood pressure” value was found to be 10%. Besides, in data set [2] (1 mg/kg i.v., dogs), the “duration of the coronary response” value came to 20 min, the “half-life of the MCF effect” value turned out to be 10 min and the “heart rate increase (tachycardia)” value is 10%. In data set [2] (5 mg/kg i.d., dogs), the MCF increase amounted to 30% and the “duration of the MCF increase” value stood at 30 min. Further, the change in vivo at 5 mg/kg in data set [1] came out at 130%.

Regarding `CC(=O)CN1C(=O)COc2c(NCCO)nc(C)nc21` [Example 29, 4-(2-Hydroxyethyl)-amino-2-methyl-8-(2-oxopropyl)-6,7-dihydro-8H-pyrimido[5,4-b][1,4]oxazine-7-one], in data set [1], the change in vivo at 5 mg/kg was found to be 40%.

As for `CCOC(=O)CN1C(=O)COc2c(NCCO)nc(C)nc21` [Example 37], in data set [2] (0.5 mg/kg i.v., dogs), the MCF increase came to 56%, the coronary flow increase is given as 34%, the “decrease in the systemic arterial blood pressure” value is 10 to 15% and the tachycardia is 6 to 7%. Also, in data set [2] (1 mg/kg i.v., dogs), the MCF increase came out at 46%, the coronary flow increase is recorded as 20%, the “duration of the coronary response” value turned out to be 10 min and the “heart rate increase (tachycardia)” value is listed as 13%. In data set [2] (1.0 mg/kg i.v., dogs), the “decrease in the systemic arterial blood pressure” value came to 20%, the “duration of the MCF increase” value was determined as 10 min and the “duration of the heart rate increase” value was 5 min. Further, in data set [2] (5 mg/kg i.d., dogs), the MCF increase entry is listed as “about 30%” and the “duration of the MCF increase” value came out at 60 min. In addition, in data set [1], the change in vivo at 5 mg/kg worked out at 55.5%. Further, the “positive inotropic action after i.d. administration” value in data set [1] (i.d., dose of both 20 mg/kg and 5 mg/kg) is reported as “strong positive inotropic action”.

Turning to `Cc1nc(Cl)c2c(n1)N(CC(O)CO)C(=O)CO2` (stereo not shown) [Example 56], in data set [1], the change in vivo at 5 mg/kg is 100%.

With `Cc1nc(N2CCOCC2)c2c(n1)N(CC(O)CO)C(=O)CO2` (stereo not shown) [Example 57, 8-(2,3-Dihydroxypropyl)-2-methyl-4-(4-morpholinyl)-6,7-dihydro-8H-pyrimido[5,4-b][1,4]oxazin-7-one], the change in vivo at 5 mg/kg in data set [1] amounted to 45%.

Regarding `Cc1nc(NCCCN2CCOCC2)c2c(n1)NC(=O)CO2` [Example 60, 2-Methyl-4-[3-(4-morpholinyl)-1-propyl]-amino-6,7-dihydro-8H-pyrimido[5,4-b][1,4]oxazin-7-one], the change in vivo at 5 mg/kg in data set [1] is 51%.

On to `Cc1nc(NCCO)c2c(n1)N(CC(=O)N1CCOCC1)C(=O)CO2` [Example 66, 4-(2-Hydroxyethyl)-amino-2-methyl-8-(4-morpholinylcarbonyl)-methyl-6,7-dihydro-8H-pyrimido[5,4-b][1,4]oxazin-7-one], for which, in data set [1], the change in vivo at 5 mg/kg is 58.3%.

Regarding `CCCCOC(=O)CN1C(=O)COc2c(NCCO)nc(C)nc21` [Example 67, 8-(n-Butoxycarbonyl)methyl-4-(2-hydrocyethyl)amino-2-methyl-6,7-dihydro-8H-pyrimido[5,4-b][1,4]oxazin-7-one hydrochloride], in data set [1], the change in vivo at 5 mg/kg came to 37%.

Regarding `Cc1nc(NCCO)c2c(n1)N(Cc1ccccc1)C(=O)CO2` [Example 69, 8-Benzyl-2-methyl-4-(2-hydroxyethyl)-amino-2-methyl-6,7-dihydro-8H-pyrimidino[5,4-b][1,4]oxazin-7-one], in data set [1], the change in vivo at 5 mg/kg came to 66%.

With `CCOC(=O)CN1C(=O)COc2c(N)nc(C)nc21` [Example 73], the change in vivo at 5 mg/kg in data set [1] is 50%.

For `CC(C)NCC(O)c1ccc(O)c(O)c1` (stereo not shown) [IS, isoproterenol, reference compound], the blood circulation parameters entry in data set [1] (0.2 μg/kg i.v., cats) is given as “did not influence”. Moreover, in data set [1] (0.2 μg/kg i.v., internal standard, cats), the MCF response entry is “short-lasting and completely reversible”.

Consider `C[C@@H]1O[C@@H](O[C@H]2C[C@@H](O)[C@]3(CO)[C@H]4[C@H](O)C[C@]5(C)[C@@H](C6=CC(=O)OC6)CC[C@]5(O)[C@@H]4CC[C@]3(O)C2)[C@H](O)[C@H](O)[C@H]1O` [Ouabain], for which, in data set [3], the indophenol-reductase inhibition result is given as “slightly”. Besides, the Na-K-ATP-ase activity entry at Na-K-ATP-ase is “strongly inhibited”.

As for `CC(C)(C)NCC(O)c1ccc(O)c(CO)n1` (stereo not shown) [Pirbuterol, 1-(5-hydroxy-6-hydroxymethyl-2-pyridyl)-2-tertiary-butylaminoethanol], in the data set on patients (longer period), the “observation after a longer period of oral treatment” value was “addiction was observed”. Further, the “effect during oral treatment” value with patients (oral treatment for some weeks) was “favorable effect”.

As to `COc1cc([S+](C)[O-])ccc1-c1nc2ncccc2[nH]1` (stereo not shown) [Sulmazole, 2-(2-methoxy-4-methylsulfinylphenyl)-1H-imidazo[4,5-b]pyridine], the side-effects result in the data set with patients (clinical tests) is listed as “relatively frequent side-effects”.

`Nc1cc(-c2ccncc2)c[nH]c1=O` [amrinone, 5-amino-(3,4'-bipyridin)-6(1H)-one]: the “positive inotropic action compared with compound 22” value in data set [2] (2 mg/kg i.v. amrinone versus 0.4 mg/kg i.v. compound 22, dogs) is “not more effective than that of 0.4 mg/kg of compound 22”. Moreover, the “positive inotropic action after an acute myocardial ischaemia” value in data set [2] (anaesthetized open-chest dogs) is reported as “significantly decreased”. In the data set with patients (setting [5]), the cardiac output result is “significantly increased” and the “resistance of the peripheral vessels” value was “diminished”. In addition, the side-effects entry in the data set on patients (therapeutic use) is given as “severe side-effects appearing in the blood picture”.

As to `Cn1c(=O)c2c(ncn2C)n(C)c1=O` [caffeine], the “inhibition of Ca-uptake” value in data set [4] was roughly 25%.

The values above are taken from patent publication US4748175A, “Pyrimido[5,4-B][1,4]oxazine derivatives and pharmaceutical compositions containing them” (priority 1985, dated 1988).
